Measurements from patent US10519111B2, “UV absorbing compounds, compositions comprising same and uses thereof” (CORAL SUNSCREEN PTY LTD, priority 2013, dated 2019).

Assays:
[1] = Critical wavelength (λcrit), approximate in-house measurement; format: physicochemical
Text: As the precise test for critical wavelength was unable to be replicated exactly by the inventors due to the need for specialist equipment and a specific calibration of the spectrophotometer, these values are only approximate to a degree. […] This represents a highly useful result and so, compounds based around this benzoyl substitution pattern shown, are especially preferred.

[2] = UV absorption properties (λmax, molar extinction coefficient ε, efficiency E 1%, 1 cm); format: physicochemical
[3] = Table 1, covalently coupled compounds
[4] = Table 10, bis and mono enamine compounds
[5] = Table 13B, miscellaneous compounds
[6] = Table 13B, values in order of the λmax values
[7] = Table 13B, values in order of the λmax values, in M-1 cm-1
[8] = values in order of the λmax values
[9] = Table 1, values in order of the λmax values
[10] = Table 2, values in order of the λmax values
[11] = Table 6A, N-isobutyl-C3-benzoyl compounds
[12] = Table 7, values in order of the λmax values
[13] = Table 13A, miscellaneous compounds

## CC(C)CN1C=C(C(=O)CC/C=C/c2ccc(COc3ccc(C(=O)CC(=O)c4ccc(C(C)(C)C)cc4)cc3)cc2)C(C)(C)CC1
[1]; [3]
  λcrit: 375 nm

## Cc1ccc(N2C=CC(C)(C)CC2)cc1
[2]; Table 10
  E (1%, 1 cm): 1036
[2]; [4]
  λmax: 278 nm
[2]; Table 10, in M-1 cm-1
  ε: 20823
[1]; Table 10
  λcrit: 321 nm

## Cc1ccc(N2C=CC(C)(C)C=C2)cc1
[2]; Table 10
  E (1%, 1 cm): 1601
[2]; [4]
  λmax: 283 nm
[2]; Table 10, in M-1 cm-1
  ε: 31871
[1]; Table 10
  λcrit: 317 nm

## CC1(C)C=CN(c2ccncc2)C=C1
[2]; Table 10
  E (1%, 1 cm): 977
[2]; [4]
  λmax: 305 nm
[2]; Table 10, in M-1 cm-1
  ε: 18164
[1]; Table 10
  λcrit: 327 nm

## CCCN(CCC)c1ccc(C(=O)C2=CN(C(C)(C)C)CCC2(C)C)cc1
[1]; Table 13B
  λcrit: 365 nm

## CC1(C)CCN(C(C)(C)C)C=C1C(=O)c1ccc(Nc2ccccc2)cc1
[2]; [5]
  λmax: 315 nm
[2]; [6]
  E (1%, 1 cm): 737
[2]; [7]
  ε: 26695
[1]; Table 13B
  λcrit: 361 nm

## Cc1ccc(N2C=C(C(=O)N(CCCCN(C(=O)C3=CN(c4ccc(C)cc4)CCC3(C)C)c3ccccc3)c3ccccc3)C(C)(C)CC2)cc1
[2]; [5]
  λmax: 325 nm
[2]; [6]
  E (1%, 1 cm): 608
[2]; [7]
  ε: 42215
[1]; Table 13B
  λcrit: 346 nm

## CC1(C)CCN(C(C)(C)C)C=C1C(=O)/C=C/c1ccc(/C=C/C(=O)C2=CN(C(C)(C)C)CCC2(C)C)cc1
[2]; [5]
  λmax: 386 nm
[2]; [6]
  E (1%, 1 cm): 705
[2]; [7]
  ε: 36404
[1]; Table 13B
  λcrit: 390 nm

## CC1(C)CCN(c2ccc(C(C)(C)C)cc2)C=C1C(=O)N(Cc1ccc(CN(C(=O)C2=CN(c3ccc(C(C)(C)C)cc3)CCC2(C)C)c2ccccc2)cc1)c1ccccc1
[2]; [5]
  λmax: 326 nm
[2]; [6]
  E (1%, 1 cm): 567
[2]; [7]
  ε: 46937
[1]; Table 13B
  λcrit: 352 nm

## CC1(C)CCN(C(C)(C)C)C=C1C(=O)N(CCCCN(C(=O)C1=CN(C(C)(C)C)CCC1(C)C)c1ccccc1)c1ccccc1
[2]; [5]
  λmax: 312 nm
[2]; [6]
  E (1%, 1 cm): 354
[2]; [7]
  ε: 22166
[1]; Table 13B
  λcrit: 357 nm

## CC1(C)CCN(C(C)(C)C)C=C1C(=O)N(Cc1ccc(CN(C(=O)C2=CN(C(C)(C)C)CCC2(C)C)c2ccccc2)cc1)c1ccccc1
[2]; [5]
  λmax: 314 nm
[2]; [6]
  E (1%, 1 cm): 391
[2]; [7]
  ε: 26421
[1]; Table 13B
  λcrit: 365 nm

## CCC(=O)C1=CN(c2ccc(Oc3ccc(N4C=C(C(=O)CC)C(C)(C)CC4)cc3)cc2)CCC1(C)C
[2]; [5]
  λmax: 334 nm
[2]; [6]
  E (1%, 1 cm): 1121
[2]; [7]
  ε: 58063
[1]; Table 13B
  λcrit: 353 nm

## Cc1cc(-c2ccc(N3C=C(C(=O)C(F)(F)F)C(C)(C)CC3)c(C)c2)ccc1N1C=C(C(=O)C(F)(F)F)C(C)(C)CC1
[2]; [5]
  λmax: 331 nm
[2]; [6]
  E (1%, 1 cm): 1207
[2]; [7]
  ε: 71432
[1]; Table 13B
  λcrit: 354 nm

## Cc1cc(-c2ccc(N3C=C(C(=O)C(F)(F)F)C(C)(C)CC3)c(C)c2)ccc1N1C=CC(C)(C)C(C(=O)C(F)(F)F)=C1
[2]; [5]
  λmax: 326 nm
[2]; [6]
  E (1%, 1 cm): 859
[2]; [7]
  ε: 50670
[1]; Table 13B
  λcrit: 378 nm

## CC1(C)CCN(c2ccccc2)C=C1C(=O)/C=C/c1ccc(/C=C/C(=O)C2=CN(c3ccccc3)CCC2(C)C)cc1
[1]; Table 13B
  λcrit: 390 nm

## CCC(=O)C1=CN(c2ccc(-c3ccc(N4C=C(C(=O)CC)C(C)(C)CC4)c(C)c3)cc2C)CCC1(C)C
[2]; [5]
  λmax: 328 nm
[2]; [6]
  E (1%, 1 cm): 1234
[2]; [7]
  ε: 63191
[1]; Table 13B
  λcrit: 349 nm

## Cc1cc(/C=C/C(=O)C2=CN(C(C)(C)C)CCC2(C)C)c(C)cc1Br
[2]; [5]
  λmax: 360 nm
[2]; [6]
  E (1%, 1 cm): 532
[2]; [7]
  ε: 21473
[1]; Table 13B
  λcrit: 386 nm

## Cc1cc(/C=C/C(=O)C2=CN(C(C)(C)C)CCC2(C)C)c(C)cc1/C=C/C(=O)C1=CN(C(C)(C)C)CCC1(C)C
[2]; [5]
  λmax: 385 nm
[2]; [6]
  E (1%, 1 cm): 591
[2]; [7]
  ε: 32159
[1]; Table 13B
  λcrit: 390 nm

## COC(=O)c1cc(Br)ccc1/C=C/C(=O)C1=CN(C(C)(C)C)CCC1(C)C
[2]; [5]
  λmax: 362 nm
[2]; [6]
  E (1%, 1 cm): 411
[2]; [7]
  ε: 13489
[1]; Table 13B
  λcrit: 386 nm

## COC(=O)c1cc(/C=C/C(=O)C2=CN(C(C)(C)C)CCC2(C)C)ccc1/C=C/C(=O)C1=CN(C(C)(C)C)CCC1(C)C
[2]; [5]
  λmax: 383 nm
[2]; [6]
  E (1%, 1 cm): 525
[2]; [7]
  ε: 30128
[1]; Table 13B
  λcrit: 389 nm

## CC1(C)CCN(C(C)(C)C)C=C1C(=O)/C=C/c1c2ccccc2c(/C=C/C(=O)C2=CN(C(C)(C)C)CCC2(C)C)c2ccccc12
[1]; Table 13B
  λcrit: 389 nm

## CC1(C)CCN(C(C)(C)C)C=C1C(=O)c1ccc(N2CCCN(c3ccc(C(=O)C4=CN(C(C)(C)C)CCC4(C)C)cc3)CC2)cc1
[1]; Table 13B
  λcrit: 365 nm

## CC1(C)CCN(c2ccc(C(C)(C)C)cc2)C=C1C(=O)C(c1ccccc1)c1ccccc1 [Compound 204, 1-(1-(4-(tert-butyl)phenyl)-4,4-dimethyl-1,4,5,6-tetrahydropyridine-3-yl)-2,2-diphenylethanone]
[2]
  UV λmax: 337 nm
[2]; unit not given
  ε value: approximately 18000
[2]; [8]
  ε (molar extinction coefficient): 17793 M⁻¹ cm⁻¹

## CC1(C)CCN(c2ccc(C(C)(C)C)cc2)C=C1C(=O)C1c2ccccc2-c2ccccc21 [Compound 205, (1-(4-(tert-butyl)phenyl)-4,4-dimethyl-1,4,5,6-tetrahydropyridin-3-yl)(9H-fluoren-9-yl)methanone]
[2]
  UV λmax: 339 nm
[2]; [8]
  ε (molar extinction coefficient): 30745 M⁻¹ cm⁻¹

## COc1ccc(C(=O)C(CCCCCC(=O)C2=CN(CC(C)C)CCC2(C)C)C(=O)c2ccc(C(C)(C)C)cc2)cc1 (stereo not drawn) [drawing 45]
[2]; [3]
  λmax: 306 nm

## C=CCCC(=O)C1=CN(CC(C)C)CCC1(C)C [drawing 46]
[2]; [3]
  λmax: 308 nm
[2]; [9]
  Ε (1%, 1 cm): 1417
  ε: 35000 M⁻¹ cm⁻¹

## CC(C)CN1C=C(C(=O)c2ccc(C(C)(C)C)cc2)C(C)(C)CC1 [drawing 51]
[2]; Table 2, compounds 11-13
  λmax: 317 nm
[2]; [10]
  Ε (1%, 1 cm): 581
  ε: 19000 M⁻¹ cm⁻¹

## COc1ccc(C(=O)C2=CN(CC(C)C)CCC2(C)C)cc1 [drawing 52]
[2]; Table 2, compounds 11-13
  λmax: 319 nm

## COc1ccc(C(=O)CC(=O)C2=CN(CC(C)C)CCC2(C)C)cc1 [drawing 53]
[1]; Table 2, compounds 11-13
  λcrit: 389 nm

## CC1(C)CCN(C(C)(C)C)C=C1C(=O)CC(=O)c1ccccc1 [drawing 76]
[1]; Table 5
  λcrit: 385 nm

## CC(C)CN1C=C(C(=O)c2ccc(Br)cc2)C(C)(C)CC1 [drawing 84]
[2]; Table 6A
  E (1%, 1 cm): 642
  ε: 22500 M⁻¹ cm⁻¹
[2]; [11]
  λmax: 318 nm

## CC(C)CN1C=C(C(=O)c2ccc3c(c2)CCO3)C(C)(C)CC1 [drawing 85]
[2]; Table 6A
  E (1%, 1 cm): 831
  ε: 22000 M⁻¹ cm⁻¹
[2]; [11]
  λmax: 320 nm

## CC(C)CN1C=C(C(=O)c2ccc(-c3ccccc3)cc2)C(C)(C)CC1 [drawing 86]
[2]; Table 6A
  E (1%, 1 cm): 509
  ε: 18000 M⁻¹ cm⁻¹
[2]; [11]
  λmax: 320 nm

## CC(C)CN1C=C(C(=O)c2ccccc2)C(C)(C)CC1 [drawing 87]
[2]; Table 6A
  E (1%, 1 cm): 701
  ε: 19000 M⁻¹ cm⁻¹
[2]; [11]
  λmax: 316 nm

## CC(C)CN1C=C(C(=O)c2ccc(C(=O)C3=CN(CC(C)C)CCC3(C)C)cc2)C(C)(C)CC1 [drawing 88]
[2]; Table 6A
  E (1%, 1 cm): 547
  ε: 20000 M⁻¹ cm⁻¹
[2]; [11]
  λmax: 320 nm

## CC(C)CN1C=C(C(=O)c2cc(C(=O)C3=CN(CC(C)C)CCC3(C)C)cc(C(=O)C3=CN(CC(C)C)CCC3(C)C)c2)C(C)(C)CC1 [drawing 89]
[2]; Table 6A
  E (1%, 1 cm): 502
  ε: 33000 M⁻¹ cm⁻¹
[2]; [11]
  λmax: 316 nm

## CC(C)CN1C=C(C(=O)c2ccc(C(=O)c3ccccc3)cc2)C(C)(C)CC1 [drawing 90]
[2]; Table 6A
  E (1%, 1 cm): 200
  ε: 7500 M⁻¹ cm⁻¹
[2]; [11]
  λmax: 295 nm

## COc1ccc(C(=O)C2=CN(CC(C)C)CCC2(C)C)c(OC)c1 [drawing 91]
[2]; Table 6A
  E (1%, 1 cm): 286
  ε: 9500 M⁻¹ cm⁻¹
[2]; [11]
  λmax: 313 nm

## CC(C)=CC(=O)C1=CN(CC(C)C)CCC1(C)C [drawing 107]
[2]; Table 7, unsaturated compounds
  λmax: 314 nm
[2]; [12]
  E (1%, 1 cm): 757
  ε: 19000 M⁻¹ cm⁻¹

## C=C(C)CC(=O)C1=CN(CC(C)C)CCC1(C)C [drawing 108]
[2]; Table 7, unsaturated compounds
  λmax: 306 nm
[2]; [12]
  E (1%, 1 cm): 574
  ε: 14500 M⁻¹ cm⁻¹

## C=C/C=C/CC(=O)C1=CN(CC(C)C)CCC1(C)C [drawing 109]
[2]; Table 7, unsaturated compounds
  λmax: 311 nm
[2]; [12]
  E (1%, 1 cm): 1053
  ε: 27500 M⁻¹ cm⁻¹

## C=CCC(=O)C1=CN(CC(C)C)CCC1(C)C [drawing 110]
[2]; Table 7, unsaturated compounds
  λmax: 310 nm
[2]; [12]
  E (1%, 1 cm): 1102
  ε: 27000 M⁻¹ cm⁻¹

## CC(C)CN1C=C(C(=O)/C=C/C=Cc2ccccc2)C(C)(C)CC1 [drawing 115]
[1]; Table 7
  λcrit: 387 nm

## C=C(C)C(=O)C1=CN(CC(C)C)CCC1(C)C [drawing 116]
[2]; Table 7, unsaturated compounds
  λmax: 310 nm
[2]; [12]
  E (1%, 1 cm): 806
  ε: 18950 M⁻¹ cm⁻¹

## CC(C)CN1C=C(C(=O)C(C#N)=C(c2ccccc2)c2ccccc2)C(C)(C)CC1 [drawing 118]
[1]; Table 7
  λcrit: 357 nm

## CC1(C)C=CN(c2ccccc2)CC1 [drawing 121]
[2]; Table 8a
  E (1%, 1 cm): 1205
  ε: 22550 M⁻¹ cm⁻¹
[2]; Table 8a, N-phenyl compounds
  λmax: 278 nm

## CC1(C)C=CN(c2ccccc2)C=C1 [drawing 125]
[2]; Table 8a
  E (1%, 1 cm): 866
  ε: 16000 M⁻¹ cm⁻¹
[2]; Table 8a, N-phenyl compounds
  λmax: 285 nm

## COc1ccc(N2C=CC(C)(C)CC2)cc1 [drawing 126]
[2]; Table 8a, N-phenyl compounds
  λmax: 275 nm

## CCC(=O)C1=CN(CC(C)C)C(=O)CC1(C)C [drawing 169]
[2]; [13]
  λmax: 291 nm

## CC(C)CN1C=C(C(=O)CCC(=O)O)C(C)(C)CC1 [drawing 171]
[2]; [13]
  λmax: 308 nm

## CC(C)CN1C=C(C(=O)C(c2ccccc2)c2ccccc2)C(C)(C)CC1 [drawing 172]
[2]; Table 13A
  E (1%, 1 cm): 716
  ε: 26000 M⁻¹ cm⁻¹
[2]; [13]
  λmax: 314 nm

## CC(C)CN1C=C(S(=O)(=O)c2ccccc2)C(C)(C)CC1 [drawing 173]
[2]; Table 13A
  E (1%, 1 cm): 359
  ε: 11000 M⁻¹ cm⁻¹
[2]; [13]
  λmax: 285 nm
